Results as given in US5424296A, “2-Halo-2'-deoxyadenosines as therapeutic agents against malignant astrocytoma” (The Scripps Research Institute, priority 1993, dated 1995).
Where two headings read alike, the source gives them in different places.

Assays:
granulocyte [1] = test: Clinical treatment of multiple sclerosis, granulocyte counts; type: in vivo, human; settings: about 0.1 mg/kg/day, seven day courses of continuous infusion, after several courses
malignant astrocytoma = test: Phase I study, tumor response in malignant astrocytoma; type: in vivo, human
Text: (§1) A response to this treatment process can be determined according to the criteria proposed by Macdonald et al., J. Clin. Oncol., 8:1277-1280 (1990). A complete response requires the disappearance of all enhancing tumor on consecutive CAT or MRI scans at least one month apart, off steroids, and that the patient be neurologically stable or improved. A partial response is defined as a greater or equal to 50 percent decrease in size (largest cross-sectional area) of enhancing tumor on consecutive CAT or MRI scans at least one month apart, steroids stable or reduced, and that the patient be neurologically stable or improved. All other tumor responses were designated as no response.
(§2) The patients received continuous infusions of either 0.10, 0.15 or 0.20 mg/kg/day over seven day time periods in up to five monthly cycles. The patients with malignant astrocytomas received either 0.10 or 0.15 mg/kg/day; none receiving 0.20 mg/kg/day.
(§3) The finally diluted solution was infused through central venus access using an infusion pump device (Pharmacia Deltec Cadd) for out-patients, or infused by usual venus infusion for in-patients.
(§4) Each of the patients, except three (one renal cell carcinoma and two malignant melanoma) patients, had received a prior treatment. Each of the patients with malignant astrocytoma had been treated both surgically and with X-rays or by chemotherapy.

malignant melanoma = test: Phase I study, tumor response in malignant melanoma; type: in vivo, human; settings: twelve patients
Text: as §1, §2, §3, §4

renal cell carcinoma = test: Phase I study, tumor response in renal cell carcinoma; type: in vivo, human; settings: two patients
Text: as §1, §2, §3, §4

Phase I study, toxicity = type: in vivo, human
Procedure: as §2, §3

CFU-GM cells = settings: 100 nM 2-CdA; cited from earlier work
CML in blast crisis = settings: cited from earlier work
neutrophils [2] = settings: chronic lymphocytic leukemia, serum levels less than 10 nM, in most cases; cited from earlier work
neutrophils [3] = settings: cutaneous T cell lymphoma, 0.1 mg/kg per day over 7 days; cited from earlier work
granulocyte [4] = settings: hairy cell leukemia, cited from earlier work
[5] = test system: Erythroid progenitor cells; settings: cultured marrow and blood cells from normal patients; cited from earlier work
[6] = test system: Primitive burst-forming unit-erythroid (pBFU-E) cells; settings: read-out: IC50 (concentration required to inhibit 50 percent of growth); pBFU-E cells from normal patients; cited from earlier work
[7] = test system: Mature BFU-E (mBFU-E) cells; settings: read-out: IC50 (concentration required to inhibit 50 percent of growth); mBFU-E cells from normal patients; cited from earlier work
[8] = test system: colony forming unit-erythroid (CFU-E) cells; settings: read-out: IC50 (concentration required to inhibit 50 percent of growth); CFU-E cells from normal patients; cited from earlier work
[9] = test system: Colony forming unit-granulocyte macrophage (CFU-GM) cells; settings: read-out: IC50 (concentration required to inhibit 50 percent of growth); CFU-GM cells from normal patients; cited from earlier work

Q: With `Nc1nc(Cl)nc2c1ncn2[C@H]1C[C@H](O)[C@@H](CO)O1` [2-CdA, 2-chloro-2'-deoxyadenosine] as the compound, how does the granulocyte counts (granulocyte [1]) read?
A: Its granulocyte counts is “substantially unchanged”.

Q: And the “duration of partial response” value (malignant astrocytoma; patient No. 1, grade 2 astrocytoma, four cycles at 0.10 mg/kg/day)?
A: Its value is “seven”.

Q: And the “coronal MRI of brain after treatment” value (malignant astrocytoma; patient No. 1, intravenous contrast)?
A: The value was “resolution of tumor enhancement”.

Q: What about the “axial spin echo MRI of brain after treatment” value (malignant astrocytoma; patient No. 12) of the same compound?
A: Its value is “complete regression of the edema and shrinkage of the cyst”.

Q: And the “cyst on sagittal T1-weighted imaging after treatment” value (malignant astrocytoma; patient No. 12)?
A: Its value is “smaller in size and higher in signal intensity”.

Q: What about the “sagittal T1-weighted imaging of brain after treatment” value (malignant astrocytoma; patient No. 12) of the same compound?
A: The value was “complete regression of the temporal lobe swelling, with restoration of a normal sulcal pattern”.

Q: And the “duration of partial response” value (malignant astrocytoma; patient No. 12, GBM, five cycles at 0.15 mg/kg/day)?
A: Its value is “nine”.

Q: What about the “responding patients (partial response)” value (malignant astrocytoma; two of seven malignant astrocytoma patients, 0.1 or 0.15 mg/kg/day) of the same compound?
A: Its value is 28.6%.

Q: What about the “median duration of partial response” value (malignant astrocytoma; two responding patients) of the same compound?
A: Its value is “eight”.

Q: What about the “patients with partial response” value (malignant melanoma) of the same compound?
A: Its value is “None”.

Q: And the “patients with partial response” value (renal cell carcinoma)?
A: The value was “None”.

Q: And the myelosuppression per cycles (Phase I study, toxicity; 0.10 mg/kg/day)?
A: Its myelosuppression per cycles is 1/18.

Q: What about the myelosuppression per cycles (Phase I study, toxicity; 0.15 mg/kg/day) of the same compound?
A: Its myelosuppression per cycles is 5/22.

Q: And the myelosuppression per cycles (Phase I study, toxicity; 0.20 mg/kg/day)?
A: Its myelosuppression per cycles is 3/4.

Q: And the “myelosuppression, dose dependence” value (Phase I study, toxicity; 0.10, 0.15, 0.20 mg/kg/day)?
A: Its value is “increased with dosage”.

Q: What about the principal toxic effect (Phase I study, toxicity; all patients) of the same compound?
A: The principal toxic effect was “Myelosuppression”.

Q: What about the “alopecia, nausea, vomiting, cardiopulmonary, renal or hepatic toxicity” value (Phase I study, toxicity; any patient of the study) of the same compound?
A: The value was “No alopecia, nausea, vomiting, cardiopulmonary, renal or hepatic toxicity occurred”.

Q: What about the “myelosuppression in patients with previous biologic therapy” value (Phase I study, toxicity; in vivo) of the same compound?
A: The value was “all of the patients with previous biologic therapy treatment developed myelosuppression”.

Q: And the “patients with prior chemotherapy among those who developed myelosuppression” value (Phase I study, toxicity; in vivo)?
A: Its value is “five of eight”.

Q: What about the “patients with prior chemotherapy among those without myelosuppression” value (Phase I study, toxicity; in vivo) of the same compound?
A: Its value is “two of thirteen”.

Q: And the “patients with prior biologic therapies among those exhibiting myelosuppression” value (Phase I study, toxicity; interferon, interleukin-2, or lymphocyte-activated killer cells)?
A: Its value is “Four of the eight”.

Q: What about the patients exhibiting myelosuppression (Phase I study, toxicity; malignant astrocytoma (GBM), seven patients) of the same compound?
A: Its patients exhibiting myelosuppression is “Two of the seven”.

Q: And the “patients exhibiting delayed neurotoxicities” value (Phase I study, toxicity; malignant melanoma with prior therapy, unknown whether directly from 2-CdA)?
A: The value was “Two”.

Q: And the type of myelosuppression (Phase I study, toxicity; one astrocytoma patient with prior surgical and X-ray treatments, after the fifth cycle)?
A: Its type of myelosuppression is “both neutropenia and thrombocytopenia”.

Q: And the “myelosuppression (grades 3 or 4 neutropenia or thrombocytopenia), frequency by pretreatment” value (Phase I study, toxicity; prior exposure to systemic chemotherapy)?
A: The value was “more frequent in patients having had prior exposure to systemic chemotherapy”.

Q: What about the “reduction of growth of CFU-GM cells” value (CFU-GM cells) of the same compound?
A: The value was 60%.

Q: What about the detectable tumor (CML in blast crisis; another of two patients) of the same compound?
A: The detectable tumor was “loss of detectable tumor”.

Q: What about the blast count (CML in blast crisis; one of two patients) of the same compound?
A: The blast count was “decrease in blast count”.

Q: What about the neutrophil count (neutrophils [2]) of the same compound?
A: Its neutrophil count is “increase in neutrophil count”.

Q: What about the “resistance of neutrophils relative to monocytes and lymphocytes” value (neutrophils [3]) of the same compound?
A: Its value is “more resistant to 2-CdA than their monocytes and lymphocytes”.

Q: What about the granulocyte counts (granulocyte [4]; transient neutropenia) of the same compound?
A: Its granulocyte counts is “under 500 per microliter”.

Q: And the neutropenia (granulocyte [4]; particularly acute in patients already neutropenic)?
A: Its neutropenia is “transient neutropenia”.

Q: What about the “sensitivity of erythroid progenitor cells to 2-CdA” value [5] of the same compound?
A: Its value is “dose-dependent sensitivity to 2-CdA, with that sensitivity decreasing as the stage of progenitor maturation increased”.

Q: What about the IC50 [6] of the same compound?
A: The IC50 was 0.019 µM.

Q: What about the IC50 [7] of the same compound?
A: Its IC50 is 0.038 µM.

Q: What about the IC50 [8] of the same compound?
A: Its IC50 is 0.056 µM.

Q: And the IC50 [9]?
A: Its IC50 is 0.016 µM.
